Measured values: US10118915B2, “Kappa opioid ligands” (The Scripps Research Institute, priority 2012, dated 2018)
Read-outs that look alike come from different tables or passages of the source.

Target: kappa opioid receptor (OPRK1) (Homo sapiens (Human), UniProt P41145)
Assay: OPRK1 antagonist assay (b-arrestin-2-TEV protease / b-lactamase reporter cell line, EC80 challenge of U-50488)
Type: cell-based
[1] = antagonist mode vs EC80 U-50488, read-out: IC50

Sequence of kappa opioid receptor (OPRK1) (P41145 whole entry): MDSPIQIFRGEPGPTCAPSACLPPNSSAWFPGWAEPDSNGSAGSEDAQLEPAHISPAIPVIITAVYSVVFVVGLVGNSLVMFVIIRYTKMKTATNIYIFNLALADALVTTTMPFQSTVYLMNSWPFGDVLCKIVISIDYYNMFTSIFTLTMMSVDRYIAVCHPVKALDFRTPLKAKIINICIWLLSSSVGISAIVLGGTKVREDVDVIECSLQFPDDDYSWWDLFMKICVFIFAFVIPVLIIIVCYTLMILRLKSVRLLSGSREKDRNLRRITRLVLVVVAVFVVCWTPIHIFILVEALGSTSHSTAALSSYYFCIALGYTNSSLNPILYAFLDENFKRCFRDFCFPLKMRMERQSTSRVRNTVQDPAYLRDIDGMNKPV

IC50 [1] | SMILES | IC50
> 10 µM | Cc1cc(C#N)nc(N2CCC(N[C@@H]3CCCC[C@H]3O)CC2)c1C#N [C11] | 
 | COC(=O)c1cc(Br)cnc1NC1CCC(NC2CCCCC2)CC1 (centres unmarked) [C20] | > 10 µM
 | CC(C)c1noc(-c2cc(Br)cnc2N2CCC(NC3CCCCC3)CC2)n1 [C42] | > 10 µM
 | Cc1ccc2nc(N3C[C@@H]4[C@H](C3)[C@H]4NC3CCOCC3)c(-c3nc(C)no3)cc2c1 [C88] | > 10 µM
7.16 µM | COC1CN(c2nc3ccccc3cc2C2=NCC(C)O2)CCC1NC1CCCCC1O (centres unmarked) [compound 258] | 
0.113 µM | CCc1noc(-c2cc3cc(C)ccc3nc2N2CC[C@@H](NC3CCCCC3)[C@H](OC)C2)n1 [compound 335] | 
1.07 µM | Cc1nc(-c2cc3ccc(F)cc3nc2N2CCC(NC3CCOCC3)CC2)no1 [compound 486] | 
0.616 µM | Cc1nc(-c2cc3cc(F)ccc3nc2N2CCC(NC3CCCCCC3)CC2)no1 [compound 489] | 
